According to the supplement of paper PMC10307832:

Key:
Experiment in all cases: relative viability (nuclei count vs DMSO), 5 days (fraction); higher = more cells survive
Decitabine + Luminespib = compound: Nc1ncn([C@H]2C[C@H](O)[C@@H](CO)O2)c(=O)n1 [Decitabine] + CCNC(=O)c1noc(-c2cc(C(C)C)c(O)cc2O)c1-c1ccc(CN2CCOCC2)cc1 [Luminespib] (partner 0.01 µM)
In short: (§1)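 Lung cancer cell lines were pin-tool dosed in 1536-well plates on the day after seeding, with either a lone drug or a fixed anchor-drug dose plus five library-drug doses (not always all listed) in √10 steps. Nuclei were counted on 4× images after 5 days. Relative viability is the ratio of treated-well to vehicle-well nuclei counts, with each value a median of duplicate plates.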

Decitabine + Vorinostat = compound: Nc1ncn([C@H]2C[C@H](O)[C@@H](CO)O2)c(=O)n1 [Decitabine] + O=C(CCCCCCC(=O)Nc1ccccc1)NO [Vorinostat] (partner 1 µM)
In short: as §1

Decitabine + AZD7762 = compound: Nc1ncn([C@H]2C[C@H](O)[C@@H](CO)O2)c(=O)n1 [Decitabine] + NC(=O)Nc1cc(-c2cccc(F)c2)sc1C(=O)N[C@H]1CCCNC1 [AZD7762] (partner 0.2 µM)
In short: as §1

Decitabine + Bortezomib = compound: Nc1ncn([C@H]2C[C@H](O)[C@@H](CO)O2)c(=O)n1 [Decitabine] + CC(C)C[C@H](NC(=O)[C@H](Cc1ccccc1)NC(=O)c1cnccn1)B(O)O [Bortezomib] (partner 0.002 µM)
In short: as §1

| Cell Line | relative viability (Decitabine + Luminespib; first compound 0.04 µM) | relative viability (Decitabine + Luminespib; first compound 0.1265 µM) | relative viability (Decitabine + Luminespib; first compound 0.4 µM) | relative viability (Decitabine + Luminespib; first compound 1.265 µM) | relative viability (Decitabine + Luminespib; first compound 4 µM) | relative viability (Decitabine + Vorinostat; first compound 0.04 µM) | relative viability (Decitabine + Vorinostat; first compound 0.1265 µM) | relative viability (Decitabine + Vorinostat; first compound 0.4 µM) | relative viability (Decitabine + Vorinostat; first compound 1.265 µM) | relative viability (Decitabine + Vorinostat; first compound 4 µM) | relative viability (Decitabine + AZD7762; first compound 0.04 µM) | relative viability (Decitabine + AZD7762; first compound 0.1265 µM) | relative viability (Decitabine + AZD7762; first compound 0.4 µM) | relative viability (Decitabine + AZD7762; first compound 1.265 µM) | relative viability (Decitabine + AZD7762; first compound 4 µM) | relative viability (Decitabine + Bortezomib; first compound 0.04 µM) | relative viability (Decitabine + Bortezomib; first compound 0.1265 µM) | relative viability (Decitabine + Bortezomib; first compound 0.4 µM) | relative viability (Decitabine + Bortezomib; first compound 1.265 µM) | relative viability (Decitabine + Bortezomib; first compound 4 µM) |
| --- | --- | --- | --- | --- | --- | --- | --- | --- | --- | --- | --- | --- | --- | --- | --- | --- | --- | --- | --- | --- |
| NCI-H727 | 0.499 | 0.289 | 0.339 | 0.288 | 0.407 | 1.08 | 0.973 | 0.664 | 0.835 | 1.1 | 0.562 | 0.588 | 0.427 | 0.462 | 0.574 | 0.697 | 0.672 | 0.382 | 0.605 | 0.418 |
| NCI-H358 | 0.073 | 0.206 | 0.247 | 0.199 | 0.1 | 0.257 | 0.209 | 0.14 | 0.0806 | 0.0904 | 0.554 | 0.527 | 0.413 | 0.272 | 0.328 | – | – | – | – | – |
| NCI-H1437 | 0.995 | 0.825 | 0.633 | 0.445 | 0.372 | 0.522 | 0.542 | 0.444 | 0.373 | 0.421 | 1.1 | 0.962 | 0.758 | 0.61 | 0.391 | 0.38 | 0.324 | 0.313 | 0.221 | 0.203 |
| NCI-H441 | 0.271 | 0.371 | 0.337 | 0.293 | 0.256 | 0.211 | 0.281 | 0.249 | 0.169 | 0.181 | 0.422 | 0.428 | 0.287 | 0.259 | 0.254 | 0.228 | 0.26 | 0.231 | 0.198 | 0.198 |
| EMC-BAC-2 | 1.02 | 0.927 | 0.715 | 0.602 | 0.584 | – | 0.456 | 0.538 | 0.414 | 0.43 | – | 1.15 | 0.908 | 0.911 | 0.846 | 1.04 | 1.13 | 0.754 | 0.747 | 0.632 |
| NCI-H647 | 0.105 | 0.141 | 0.127 | 0.12 | 0.103 | 0.327 | 0.219 | 0.269 | 0.109 | 0.105 | 0.345 | 0.438 | 0.247 | 0.139 | 0.151 | 0.728 | 0.821 | 0.344 | 0.241 | 0.209 |
| CAL-12T | 0.612 | 0.359 | – | 0.298 | 0.249 | 0.615 | 0.432 | 0.486 | 0.318 | 0.238 | 0.638 | 0.578 | 0.48 | 0.443 | 0.453 | 0.828 | 1.01 | 0.535 | 0.558 | 0.543 |
| NCI-H1792 | 0.565 | 0.446 | 0.465 | 0.428 | 0.311 | – | – | – | – | – | 0.616 | 0.731 | 0.478 | 0.242 | 0.19 | 0.927 | 0.99 | 0.923 | 0.444 | 0.521 |
| H3255 | – | 0.765 | 0.64 | 0.657 | 0.601 | – | 0.846 | 0.638 | 0.487 | 0.76 | 0.662 | 0.876 | 0.617 | 0.682 | 0.601 | 0.294 | 0.751 | 0.479 | 0.521 | 0.705 |
